# According to PMC6009943, “One-pot three-component synthesis of novel spirooxindoles with potential cytotoxic activity against triple-negative breast cancer MDA-MB-231 cells” (Journal of Enzyme Inhibition and Medicinal Chemistry, 2017):
# Read-outs that look alike come from different tables or passages of the source.
# How the values were obtained:
# MDA-MB-231 cells = assay: In vitro anti-proliferative activity assay (MTT); assay type: cell-based; details: Homo sapiens, 48 h incubation
# Protocol: Cells lines were maintained as monolayers in Dulbecco’s Modified Eagle’s Medium (DMEM) supplemented with 10% FBS, 2 mM L-glutamine, 100 U/ml penicillin and 100 µg/ml streptomycin sulfate. Cells were sub-cultured with trypsine/EDTA solution, counted with haemocytometer and plated onto 96-well plates (5000 cells/well) and left overnight to form a semi-confluent monolayer. […] DMSO (100 µl/well) was added to dissolve the formazan crystals with shaking for 10 min after which the absorbance was read at 590 nm against no cell blanks on a FLuo Star Optima microplate reader (BMG Technologies, Germany). Cell proliferation was calculated comparing the OD values of the DMSO control wells and those of the samples represented as % proliferation to the control.
# The in vitro anti-proliferative activity of the newly synthesized spirooxindoles 6a–p was examined against TNBC MDA-MB-231 cells. This assay was performed utilizing the 3–(4,5-dimethylthiazol-2-yl)-2,5-diphenyltetrazolium bromide (MTT) colorimetric assay as described by Mosmann[18]. Adriamycin was included in this assay as a reference drug.
# Bcl-2 = Bcl-2 level in MDA-MB-231 cells (ELISA); assay type: cell-based; details: MDA-MB-231 cells treated with compound at its IC50 concentration
# Protocol: (§1) The levels of the apoptotic markers (Bax, caspase-3) as well as the anti-apoptotic marker (Bcl-2) were assessed using ELISA colorimetric kits per the manufacturer’s protocol and referring to reported instructions[21]^,[22].
# (§2) Bcl-2 family comprises a group of crucial regulatory factors in apoptosis that finely tune the apoptotic switch on/off mechanism. Based on their functional and structural criteria, the members are divided into two major classes; group I proteins that are anti-apoptotic and group II proteins that are apoptotic. Group I anti-apoptotic proteins exert their function by inhibiting group II apoptotic proteins through simply binding to them. Group I proteins bind selectively to the active conformations of group II proteins to prevent them from being inserted into the mitochondria and thus cease the release of pro-apoptotic factors such as cytochrome c, ultimately aborting apoptosis. Thus, the inhibition of group I proteins and/or the activation of group II proteins can successfully induce apoptosis.
# caspase-3 = assay: Active caspase-3 level in MDA-MB-231 cells (ELISA); assay type: cell-based; details: MDA-MB-231 cells treated with compound at its IC50 concentration
# Protocol: as §1
# Caspases, a family of cysteineaspartic proteases, are the crucial apoptosis mediators that provide essential links in cell regulatory networks controlling cell death. Caspase-3 is the key executioner caspase which modifies proteins ultimately responsible for apoptosis.
# EGFR = biological target: T1, EGFR (Homo sapiens, UniProt P00533); assay: EGFR kinase ELISA assay; assay type: biochemical; details: colorimetric ELISA, mean ± SD of three separate experiments
# T1 construct: purchased BPS Biosciences 40321
# Protocol: Percent inhibition was calculated by the comparison of compounds treated to control incubations.
# Erlotinib, a clinically used EGFR inhibitor, was taken as the reference drug.
# WI-38 cells = assay: In vitro cytotoxic activity, WI-38 cells (MTT); assay type: cell-based, human; details: for IC50: WI-38, MTT assay, human normal lung fibroblast cell line, read-out: IC50 (µM) WI-38; for Selectivity Index: WI-38 versus MDA-MB-231
# Protocol: WI-38 cells ([…]), were obtained from American Type Culture Collection. The cells were propagated in DMEM supplemented with 10% heat-inactivated FBS (Hyclone), 10 μg/ml of insulin (Sigma), and 1% penicillin-streptomycin. All of the other chemicals and reagents were from Sigma, or Invitrogen. Cytotoxicity was determined using MTT assay following a reported procedure.
# Bax = Bax level in MDA-MB-231 cells (ELISA); assay type: cell-based; details: MDA-MB-231 cells treated with compound at its IC50 concentration
# Protocol: as §1, §2
# [1] = system: MDA-MB-231 cancer cell line; details: cited from earlier work
# T1 sequence (P00533 25-1210): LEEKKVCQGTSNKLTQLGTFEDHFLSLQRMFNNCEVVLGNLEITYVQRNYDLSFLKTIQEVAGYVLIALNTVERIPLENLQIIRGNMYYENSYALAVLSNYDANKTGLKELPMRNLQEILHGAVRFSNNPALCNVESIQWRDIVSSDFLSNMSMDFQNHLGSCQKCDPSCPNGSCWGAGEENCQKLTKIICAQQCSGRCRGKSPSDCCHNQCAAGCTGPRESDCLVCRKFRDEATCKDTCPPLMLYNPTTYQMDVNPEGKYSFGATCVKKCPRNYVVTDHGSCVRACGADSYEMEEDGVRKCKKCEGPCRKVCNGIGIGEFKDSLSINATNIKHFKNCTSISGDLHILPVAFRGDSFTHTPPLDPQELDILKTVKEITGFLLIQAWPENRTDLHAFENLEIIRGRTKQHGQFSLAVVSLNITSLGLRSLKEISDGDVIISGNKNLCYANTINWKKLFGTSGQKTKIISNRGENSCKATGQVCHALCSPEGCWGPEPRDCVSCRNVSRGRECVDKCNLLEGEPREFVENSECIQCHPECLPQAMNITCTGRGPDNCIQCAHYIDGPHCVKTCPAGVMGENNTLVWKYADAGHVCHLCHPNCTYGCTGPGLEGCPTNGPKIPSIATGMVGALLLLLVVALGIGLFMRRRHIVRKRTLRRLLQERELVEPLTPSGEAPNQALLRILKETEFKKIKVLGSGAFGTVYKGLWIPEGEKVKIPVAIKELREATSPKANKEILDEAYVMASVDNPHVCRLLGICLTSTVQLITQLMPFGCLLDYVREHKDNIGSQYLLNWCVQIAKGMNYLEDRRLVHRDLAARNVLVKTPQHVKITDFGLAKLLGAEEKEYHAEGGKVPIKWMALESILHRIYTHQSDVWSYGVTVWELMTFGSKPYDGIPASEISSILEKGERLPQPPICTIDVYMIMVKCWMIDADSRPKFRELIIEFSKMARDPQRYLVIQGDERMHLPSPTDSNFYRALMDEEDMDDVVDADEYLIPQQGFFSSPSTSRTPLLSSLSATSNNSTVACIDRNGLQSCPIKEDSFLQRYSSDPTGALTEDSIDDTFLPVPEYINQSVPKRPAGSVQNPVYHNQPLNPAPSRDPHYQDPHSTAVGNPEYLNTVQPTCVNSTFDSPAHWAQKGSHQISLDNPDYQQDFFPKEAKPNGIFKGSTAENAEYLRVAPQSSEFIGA
IC50 (MDA-MB-231 cells),melting point,Structure (SMILES),other results
0.12 µM,–,"COc1cccc2c1C(=O)c1c(O)c3c(c(O)c1C2=O)C[C@@](O)(C(=O)CO)C[C@@H]3O[C@H]1C[C@H](N)[C@H](O)[C@H](C)O1 [Adriamycin, reference compound]",–
6.7 µM,–,"N#CC1=C(c2ccccc2)Nc2c(c(-c3cccs3)nn2-c2ccccc2)C12C(=O)Nc1ccccc12 (stereo not shown) [Compound 6a, 2-Oxo-1',6'-diphenyl-3'-(thiophen-2-yl)-1',7'-dihydrospiro[indoline-3,4'-pyrazolo[3,4-b]pyridine]-5'-carbonitrile]","Bcl-2 (Bcl-2): 0.3958 ng/mL; Bcl-2, number of folds of control (Bcl-2): 0.147 folds; Bcl-2 expression compared to basal level in the control (Bcl-2): 14.7%; Caspase-3 (caspase-3): 0.3501 ng/mL; IC50 (EGFR): 0.43 ± 0.04 µM; IC50 (WI-38 cells): 78.1 µM; Selectivity Index (WI-38 cells): 11.7; Bax (Bax): 405.5 pg/mL; Bax, number of folds of control (Bax): 506.8 folds"
29.7 µM,285 to 287 °C,"Cc1ccc(C2=C(C#N)C3(C(=O)Nc4ccccc43)c3c(-c4cccs4)nn(-c4ccccc4)c3N2)cc1 (stereo not shown) [Compound 6b, 2-Oxo-1'-phenyl-3'-(thiophen-2-yl)-6'-(p-tolyl)-1',7'-dihydrospiro[indoline-3,4'-pyrazolo[3,4-b]pyridine]-5'-carbonitrile]",–
37.8 µM,296 to 298 °C,"COc1ccc(C2=C(C#N)C3(C(=O)Nc4ccccc43)c3c(-c4cccs4)nn(-c4ccccc4)c3N2)cc1 (stereo not shown) [Compound 6c, 6'-(4-Methoxyphenyl)-2-oxo-1'-phenyl-3'-(thiophen-2-yl)-1',7'-dihydrospiro[indoline-3,4'-pyrazolo[3,4-b]pyridine]-5'-carbonitrile]",–
12 µM,279 to 281 °C,"N#CC1=C(c2ccc(Cl)cc2)Nc2c(c(-c3cccs3)nn2-c2ccccc2)C12C(=O)Nc1ccccc12 (stereo not shown) [Compound 6d, 6'-(4-Chlorophenyl)-2-oxo-1'-phenyl-3'-(thiophen-2-yl)-1',7'-dihydrospiro[indoline-3,4'-pyrazolo[3,4-b]pyridine]-5'-carbonitrile]",IC50 (EGFR): 0.36 ± 0.02 µM
18.2 µM,286 to 288 °C,"Cc1ccc(C2=C(C#N)C3(C(=O)Nc4ccc(Cl)cc43)c3c(-c4cccs4)nn(-c4ccccc4)c3N2)cc1 (stereo not shown) [Compound 6f, 5-Chloro-2-oxo-1'-phenyl-3'-(thiophen-2-yl)-6'-(p-tolyl)-1',7'-dihydrospiro[indoline-3,4'-pyrazolo[3,4-b]pyridine]-5'-carbonitrile]",–
24.1 µM,> 300 °C,"COc1ccc(C2=C(C#N)C3(C(=O)Nc4ccc(Cl)cc43)c3c(-c4cccs4)nn(-c4ccccc4)c3N2)cc1 (stereo not shown) [Compound 6g, 5-Chloro-6'-(4-methoxyphenyl)-2-oxo-1'-phenyl-3'-(thiophen-2-yl)-1',7'-dihydrospiro[indoline-3,4'-pyrazolo[3,4-b]pyridine]-5'-carbonitrile]",–
16.6 µM,281 to 283 °C,"N#CC1=C(c2ccc(Cl)cc2)Nc2c(c(-c3cccs3)nn2-c2ccccc2)C12C(=O)Nc1ccc(Cl)cc12 (stereo not shown) [Compound 6h, 5-Chloro-6'-(4-chlorophenyl)-2-oxo-1'-phenyl-3'-(thiophen-2-yl)-1',7'-dihydrospiro[indoline-3,4'-pyrazolo[3,4-b]pyridine]-5'-carbonitrile]",–
6.7 µM,–,"N#CC1=C(c2ccccc2)Nc2c(c(-c3cccs3)nn2-c2ccccc2)C12C(=O)Nc1ccc(Br)cc12 (stereo not shown) [Compound 6i, 5-Bromo-2-oxo-1',6'-diphenyl-3'-(thiophen-2-yl)-1',7'-dihydrospiro[indoline-3,4'-pyrazolo[3,4-b]pyridine]-5'-carbonitrile]",IC50 (EGFR): 0.12 ± 0.01 µM; IC50 (WI-38 cells): 39.3 µM; Selectivity Index (WI-38 cells): 5.9
13.5 µM,282 to 284 °C,"Cc1ccc(C2=C(C#N)C3(C(=O)Nc4ccc(Br)cc43)c3c(-c4cccs4)nn(-c4ccccc4)c3N2)cc1 (stereo not shown) [Compound 6j, 5-Bromo-2-oxo-1'-phenyl-3'-(thiophen-2-yl)-6'-(p-tolyl)-1',7'-dihydrospiro[indoline-3,4'-pyrazolo[3,4-b]pyridine]-5'-carbonitrile]",IC50 (EGFR): 0.51 ± 0.04 µM
12.7 µM,> 300 °C,"COc1ccc(C2=C(C#N)C3(C(=O)Nc4ccc(Br)cc43)c3c(-c4cccs4)nn(-c4ccccc4)c3N2)cc1 (stereo not shown) [Compound 6k, 5-Bromo-6'-(4-methoxyphenyl)-2-oxo-1'-phenyl-3'-(thiophen-2-yl)-1',7'-dihydrospiro[indoline-3,4'-pyrazolo[3,4-b]pyridine]-5'-carbonitrile]",IC50 (EGFR): 0.31 ± 0.02 µM
30.6 µM,293 to 294 °C,"N#CC1=C(c2ccc(Cl)cc2)Nc2c(c(-c3cccs3)nn2-c2ccccc2)C12C(=O)Nc1ccc(Br)cc12 (stereo not shown) [Compound 6l, 5-Bromo-6'-(4-chlorophenyl)-2-oxo-1'-phenyl-3'-(thiophen-2-yl)-1',7'-dihydrospiro[indoline-3,4'-pyrazolo[3,4-b]pyridine]-5'-carbonitrile]",–
17.5 µM,276 to 278 °C,"COc1ccc2c(c1)C1(C(=O)N2)C(C#N)=C(c2ccccc2)Nc2c1c(-c1cccs1)nn2-c1ccccc1 (stereo not shown) [Compound 6m, 5-Methoxy-2-oxo-1',6'-diphenyl-3'-(thiophen-2-yl)-1',7'-dihydrospiro[indoline-3,4'-pyrazolo[3,4-b]pyridine]-5'-carbonitrile]",–
> 50 µM,268 to 269 °C,"COc1ccc2c(c1)C1(C(=O)N2)C(C#N)=C(c2ccc(C)cc2)Nc2c1c(-c1cccs1)nn2-c1ccccc1 (stereo not shown) [Compound 6n, 5-Methoxy-2-oxo-1'-phenyl-3'-(thiophen-2-yl)-6'-(p-tolyl)-1',7'-dihydrospiro[indoline-3,4'-pyrazolo[3,4-b]pyridine]-5'-carbonitrile]",–
> 50 µM,279 to 281 °C,"COc1ccc(C2=C(C#N)C3(C(=O)Nc4ccc(OC)cc43)c3c(-c4cccs4)nn(-c4ccccc4)c3N2)cc1 (stereo not shown) [Compound 6o, 5-Methoxy-6'-(4-methoxyphenyl)-2-oxo-1'-phenyl-3'-(thiophen-2-yl)-1',7'-dihydrospiro[indoline-3,4'-pyrazolo[3,4-b]pyridine]-5'-carbonitrile]",–
> 50 µM,255 to 257 °C,"COc1ccc2c(c1)C1(C(=O)N2)C(C#N)=C(c2ccc(Cl)cc2)Nc2c1c(-c1cccs1)nn2-c1ccccc1 (stereo not shown) [Compound 6p, 6'-(4-Chlorophenyl)-5-methoxy-2-oxo-1'-phenyl-3'-(thiophen-2-yl)-1',7'-dihydrospiro[indoline-3,4'-pyrazolo[3,4-b]pyridine]-5'-carbonitrile]",–
–,–,CC(C)OC(=O)C1=C(N)OC2=C(C(=O)OC2)C12C(=O)Nc1ccc(Cl)cc12 (stereo not shown) [compound (i)],"IC50 ([1]; read-out: IC50, cytotoxic activity against MDA-MB-231): 11 µM"
–,–,O=C(c1ccc(OCCN2CCCC2)cc1)C1C(c2ccccc2)C2CSC(c3ccccc3)N2C12C(=O)Nc1ccc(Cl)cc12 (stereo not shown) [compound (iv)],"IC50 ([1]; reported compound of Figure 1, reference not given, read-out: IC50, cytotoxicity against MDA-MB-231): 4.2 µM"
